Test systems include TK-10 renal; HCT-116 colon; U251 CNS; HT29 colon; T-47D breast; RPMI-8226 leukemia; OVCAR-3 ovarian; DU-145 prostate; COLO 205 colon; HCT-15 colon.
Holding throughout (test): NCI-60 cell line screen, 48 h

The values below come from PubChem BioAssay (NCI).

The structures appear in SMILES notation.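 Cells were grown in 96-well plates and exposed to each compound for 48 hours at five concentrations; endpoints were interpolated linearly between bracketing concentrations, or set to the highest concentration if not reached. At the GI50, growth is halved. TGI: total growth inhibition.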

On to `COC(=O)[C@H]1CCCN1C(=O)[C@H]1CCCN1C(=O)[C@H](Cc1c[nH]c2ccccc12)NC(=S)Nc1cc(C(F)(F)F)cc(C(F)(F)F)c1`, for which the GI50 was 12.7 µM with TK-10 renal; 4.27 µM in the experiment with HCT-116 colon; 4.21 µM in the experiment with U251 CNS; 2.95 µM in the experiment on HT29 colon; 3.72 µM with T-47D breast; 5.24 µM in the experiment with RPMI-8226 leukemia. The GI50 is 8.43 µM in the experiment with OVCAR-3 ovarian, 6.53 µM with DU-145 prostate, 2.08 µM in the experiment on COLO 205 colon and 6.26 µM with HCT-15 colon. Also, the TGI is over 100 µM in the experiment with TK-10 renal; over 100 µM with HCT-116 colon; 61.9 µM in the experiment on U251 CNS; 8.72 µM with HT29 colon; over 100 µM in the experiment with T-47D breast; over 100 µM in the experiment on RPMI-8226 leukemia. The TGI is over 100 µM in the experiment with OVCAR-3 ovarian, over 100 µM with DU-145 prostate, 4.28 µM with COLO 205 colon and over 100 µM in the experiment with HCT-15 colon.

Turning to `COc1ccc(N(C)c2nc(N)nc3sc4c(c23)CCCC4)cc1`, the GI50 was under 0.0278 µM in the experiment with TK-10 renal; under 0.01 µM with HCT-116 colon; under 0.0114 µM in the experiment with U251 CNS; under 0.01 µM with HT29 colon; under 0.01 µM with T-47D breast; under 0.01 µM with RPMI-8226 leukemia. The GI50 was 0.025 µM in the experiment on OVCAR-3 ovarian, under 0.0166 µM in the experiment on DU-145 prostate, 0.021 µM with COLO 205 colon and under 0.01 µM in the experiment with HCT-15 colon. Further, the TGI in the experiment with TK-10 renal was determined as 22 µM; in the experiment on HCT-116 colon it was 11.3 µM; with U251 CNS, 15 µM; in the experiment on HT29 colon, 12.1 µM; with T-47D breast, 30.8 µM; in the experiment on RPMI-8226 leukemia, 15.6 µM. The TGI in the experiment with OVCAR-3 ovarian was determined as 14.2 µM; with DU-145 prostate, 11.2 µM; in the experiment on COLO 205 colon, 0.0573 µM; in the experiment on HCT-15 colon, 13 µM.

As to `CN(CC(=O)N(Cc1ccc(C2CCCCC2)cc1)c1ccc(C(=O)O)cc1)S(=O)(=O)c1c(F)c(F)c(F)c(F)c1F`, the GI50 with TK-10 renal was 2.75 µM; with HCT-116 colon it was 1.93 µM; in the experiment with U251 CNS, 1.86 µM; in the experiment with HT29 colon, 2.01 µM; with T-47D breast, 2.09 µM; with RPMI-8226 leukemia, 2.85 µM. The GI50 is 1.79 µM with OVCAR-3 ovarian, 1.74 µM in the experiment with DU-145 prostate, 1.97 µM in the experiment on COLO 205 colon and 1.74 µM in the experiment with HCT-15 colon. Also, the TGI in the experiment with TK-10 renal was found to be 10.5 µM; in the experiment with HCT-116 colon it was 3.68 µM; with U251 CNS, 3.31 µM; in the experiment on HT29 colon, 4.11 µM; with T-47D breast it was 4.83 µM; with RPMI-8226 leukemia it was 7.4 µM. Further, the TGI turned out to be 3.19 µM with OVCAR-3 ovarian, 3.11 µM in the experiment with DU-145 prostate, 3.95 µM in the experiment on COLO 205 colon and 3.36 µM in the experiment on HCT-15 colon.

Take `CCCCCCCCCCCC[n+]1ccc2ccccc2c1`: the GI50 in the experiment on TK-10 renal is 1.17 µM; with HCT-116 colon it was 0.857 µM; with U251 CNS, 0.348 µM; in the experiment on HT29 colon it was 0.419 µM; with T-47D breast it was 0.406 µM; in the experiment on RPMI-8226 leukemia, 0.295 µM. Moreover, the GI50 was 0.579 µM in the experiment on OVCAR-3 ovarian, 1.18 µM in the experiment with DU-145 prostate, 1.22 µM with COLO 205 colon and 2.6 µM in the experiment on HCT-15 colon. Also, the TGI came out at 2.57 µM with TK-10 renal; 2.37 µM in the experiment with HCT-116 colon; 1.42 µM in the experiment with U251 CNS; 2.14 µM with HT29 colon; 5.26 µM with T-47D breast; 0.949 µM in the experiment on RPMI-8226 leukemia. For the same compound, the TGI in the experiment with OVCAR-3 ovarian came to 1.89 µM; in the experiment on DU-145 prostate, 2.74 µM; in the experiment on COLO 205 colon, 2.59 µM; in the experiment with HCT-15 colon, 13.8 µM.

In the case of `Cc1cc(Cl)nc(N(CCCNc2ccnc3cc(Cl)ccc23)Cc2ccco2)n1`, the GI50 in the experiment on TK-10 renal is 2.7 µM; with HCT-116 colon, 1.42 µM; with U251 CNS, 2.07 µM; with HT29 colon it was 1.38 µM; with T-47D breast, 1.73 µM; in the experiment with RPMI-8226 leukemia, 1.04 µM. The GI50 was 2.48 µM in the experiment on OVCAR-3 ovarian, 3.48 µM in the experiment on DU-145 prostate, 1.43 µM in the experiment on COLO 205 colon and 1.99 µM with HCT-15 colon. In addition, the TGI in the experiment on TK-10 renal was found to be 11.1 µM; in the experiment with HCT-116 colon it was 4.17 µM; in the experiment with U251 CNS, 6.15 µM; with HT29 colon it was 6.46 µM; in the experiment on T-47D breast, 6.43 µM; with RPMI-8226 leukemia, 3.19 µM. The TGI turned out to be 10.3 µM with OVCAR-3 ovarian, 14.7 µM in the experiment with DU-145 prostate, 3.08 µM with COLO 205 colon and 7.61 µM in the experiment on HCT-15 colon.

Turning to `O=C(COc1cccc(/C=C2\CSc3ccccc3C2=O)c1)Nc1nccs1`, the GI50 was 2.25 µM in the experiment on TK-10 renal; 1.6 µM in the experiment on HCT-116 colon; 1.82 µM in the experiment with U251 CNS; 1.85 µM in the experiment on HT29 colon; 5.33 µM in the experiment with T-47D breast; 0.653 µM with RPMI-8226 leukemia. Further, the GI50 in the experiment on OVCAR-3 ovarian is 1.62 µM; in the experiment with DU-145 prostate it was 1.94 µM; with COLO 205 colon it was 5.61 µM; with HCT-15 colon, 2.17 µM. The TGI was 4.89 µM with TK-10 renal; 2.96 µM with HCT-116 colon; 3.21 µM in the experiment with U251 CNS; 3.43 µM in the experiment on HT29 colon; 23.9 µM with T-47D breast; 2.79 µM in the experiment on RPMI-8226 leukemia. Also, the TGI in the experiment on OVCAR-3 ovarian was 2.98 µM; in the experiment on DU-145 prostate, 3.99 µM; with COLO 205 colon it was 18.9 µM; with HCT-15 colon, 5 µM.

As to `CCn1c(-c2nonc2N)nc2cncc(C(=O)N3CC[C@H](N)C3)c21`, the GI50 is 0.549 µM in the experiment on TK-10 renal; 9.9 µM in the experiment with HCT-116 colon; over 25 µM with U251 CNS; over 25 µM in the experiment with HT29 colon; 24.9 µM with T-47D breast; over 25 µM in the experiment with RPMI-8226 leukemia. For the same compound, the GI50 with OVCAR-3 ovarian is over 25 µM; with DU-145 prostate it was over 25 µM; in the experiment with COLO 205 colon it was 5.87 µM; in the experiment on HCT-15 colon it was 8.29 µM. For the same compound, the TGI in the experiment on TK-10 renal is 9.22 µM; with HCT-116 colon it was over 25 µM; with U251 CNS, over 25 µM; in the experiment on HT29 colon, over 25 µM; with T-47D breast, over 25 µM; in the experiment on RPMI-8226 leukemia, over 25 µM. For the same compound, the TGI in the experiment with OVCAR-3 ovarian was over 25 µM; in the experiment with DU-145 prostate, over 25 µM; with COLO 205 colon it was 24.7 µM; in the experiment on HCT-15 colon it was over 25 µM.

Consider `COC(=O)CSSCc1ccc([N+](=O)[O-])cc1`, for which the TGI in the experiment with TK-10 renal was found to be 55.7 µM; in the experiment on HCT-116 colon it was 59.6 µM; with U251 CNS it was 30.8 µM; in the experiment on HT29 colon, 60.8 µM; with T-47D breast, 51.7 µM; in the experiment on RPMI-8226 leukemia it was 54.8 µM. Further, the TGI with OVCAR-3 ovarian was determined as 46.5 µM; with DU-145 prostate it was 50.7 µM; in the experiment with COLO 205 colon, 37.7 µM; with HCT-15 colon, 48 µM.
